Data set [1] deals with human TERT expression (hTERT mRNA). The data set can be described thus: Quantitative real-time RT-PCR of hTERT mRNA expression (Ct, transcripts) in compound-treated cells. It is filed as cell-based. Particulars: quantitative real-time RT-PCR. Summed up: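 Read-out is cycle threshold, the cycle at which probe fluorescence released by Taq 5′-nuclease activity crosses a set level; Ct falls as hTERT mRNA rises. cDNA of treated and untreated cells was compared, with starting transcripts quantified against a known-cDNA standard curve.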
A general note: Real-time PCR tracks product formation cycle by cycle.

Another data set deals with viable cells in culture. Kind of data set: Cell viability assay (CellTiter-Glo Luminescent Cell Viability Assay, ATP quantitation, percent of vehicle control). For orientation: Cellular ATP, detected with luciferase, serves as a proxy for viable cell number.

For the compound `CCCCN1C(C(=O)c2ccccc2)=C(OC(=O)c2ccco2)c2ccccc2S1(=O)=O` [compound 1216], the “Average Number of hTERT Transcripts” value in data set [1] came to 5.19. In addition, the “Average Cell Viability after 24 Hours (% DMSO)” value in the data set with viable cells in culture turned out to be 42.91 % DMSO.
Taken in the same sequence, the figures for `CCCCN1C(C(=O)c2ccccc2)=C(OC(=O)C(C)C)c2ccccc2S1(=O)=O` [compound 1217] were 10.04 and 45.00 % DMSO.
For `CCCCC(=O)OC1=C(C(=O)c2ccccc2)N(CC)S(=O)(=O)c2ccccc21` [compound 1218], in data set [1], the “Average Number of hTERT Transcripts” value is 3.35. Further, the “Average Cell Viability after 24 Hours (% DMSO)” value with viable cells in culture is given as 82.36 % DMSO.
Taken in the same sequence, the figures for `Cc1nn(C)cc1CNC(=O)C1C2CCC(O2)C1C(=O)O` (stereo not shown) [compound 1220] were 6.37 and 48.07 % DMSO.
Regarding `COc1ccc(OC)c(NC(=O)C2C3CCC(O3)C2C(=O)O)c1` (stereo not shown) [compound 1221], the “Average Number of hTERT Transcripts” value in data set [1] is 68.62. Further, the “Average Cell Viability after 24 Hours (% DMSO)” value with viable cells in culture came to 86.33 % DMSO.
On the same counts, the results for `O=C(O)C1C2CCC(O2)C1C(=O)NCc1ccco1` (stereo not shown) [compound 1222] are 15.04 and 102.27 % DMSO.
Taken in the same sequence, the figures for `O=C(O)C1C2CCC(O2)C1C(=O)N1CCN(c2ccc(F)cc2)CC1` (stereo not shown) [compound 1223] were 24.63 and 44.16 % DMSO.
Turning to `N=c1ccn2c(n1)O[C@@H]1[C@@H](O)[C@H](CO)O[C@@H]12` [compound 1226], the “Average Number of hTERT Transcripts” value in data set [1] stood at 31.01. Also, the “Average Cell Viability after 24 Hours (% DMSO)” value in the data set on viable cells in culture stood at 77.96 % DMSO.
On the same counts, the results for `Cc1cc(C)[n+]2nc3n(-c4ccccc4)c(C)cc(C)c-3c2n1` [compound 1227] are 72.86 and 77.50 % DMSO.
Taken in the same sequence, the figures for `CCOC(=O)c1ccc(Nc2nc3nonc3nc2N(CC)CC)cc1` [compound 1228] were 48.23 and 73.46 % DMSO.
On the same counts, the results for `Cc1ccc(Nc2nc3nonc3nc2NC(C)(C)C)cc1C` [compound 1229] are 17.57 and 79.23 % DMSO.
`Cc1ccc(Nc2nc3nonc3nc2Nc2ccccc2F)cc1` [compound 1230]: in data set [1], the “Average Number of hTERT Transcripts” value stood at 17.54. The “Average Cell Viability after 24 Hours (% DMSO)” value in the data set on viable cells in culture came out at 72.00 % DMSO.
On the same counts, the results for `Cc1cccc(Nc2nc3nonc3nc2Nc2ccc(F)cc2)c1C` [compound 1231] are 61.08 and 37.70 % DMSO.
In the case of `CCOc1ccc(NC(=O)c2c(NC(=O)c3ccncc3)sc3c2CCC(C(C)(C)C)C3)cc1` (stereo not shown) [compound 1232], in data set [1], the “Average Number of hTERT Transcripts” value stood at 23.68. In the data set on viable cells in culture, the “Average Cell Viability after 24 Hours (% DMSO)” value was determined as 112.57 % DMSO.
Taken in the same sequence, the figures for `Cc1cccc(NC(=O)c2c(NC(=O)c3ccncc3)sc3c2CCC(C(C)(C)C)C3)c1` (stereo not shown) [compound 1233] were 41.94 and 61.61 % DMSO.
Taken in the same sequence, the figures for `Cn1c2c(c(=O)[nH]c1=O)C(c1ccccc1)C1=C(N2)c2ccccc2C1=O` (stereo not shown) [compound 1234] were 62.81 and 53.62 % DMSO.
Taken in the same sequence, the figures for `Cn1c(=O)c2c(nc(SCc3cc4c(cc3Cl)OCO4)n2C)n(C)c1=O` [compound 1235] were 153.66 and 75.75 % DMSO.
With `CCc1ccc(S(=O)(=O)N(C(=O)c2ccccc2)c2ccc3oc(C)c(C(C)=O)c3c2)cc1` [compound 1236], the “Average Number of hTERT Transcripts” value in data set [1] is reported as 5.24. The “Average Cell Viability after 24 Hours (% DMSO)” value in the data set with viable cells in culture is 86.61 % DMSO.
On the same counts, the results for `CCCCOC(=O)c1c(C)oc2ccc(NS(=O)(=O)c3ccc4ccccc4c3)cc12` [compound 1237] are 43.79 and 71.28 % DMSO.
On the same counts, the results for `O=C(O)c1c(-c2ccccc2)c2oc3ccccc3c2[nH]c1=O` [compound 1238] are 5.16 and 89.10 % DMSO.
Taken in the same sequence, the figures for `CCCCCOC(=O)c1c(C)oc2ccc(NS(=O)(=O)c3ccc(OC)cc3)cc12` [compound 1239] were 31.94 and 66.47 % DMSO.
With `Cc1ccc(-n2c(=O)oc3ccc(Cl)cc3c2=O)cc1` [compound 1241], the “Average Number of hTERT Transcripts” value in data set [1] is listed as 39.79. Further, in the data set with viable cells in culture, the “Average Cell Viability after 24 Hours (% DMSO)” value is 77.91 % DMSO.
Taken in the same sequence, the figures for `COc1ccccc1-n1c(=O)oc2ccc(Cl)cc2c1=O` [compound 1242] were 56.42 and 80.60 % DMSO.
On to `COc1ccc(COC(=O)C2=C(C)NC3=C(C(=O)CC(c4ccco4)C3)C2c2cccs2)cc1` (stereo not shown) [compound 1243], for which the “Average Number of hTERT Transcripts” value in data set [1] is given as 5.18. The “Average Cell Viability after 24 Hours (% DMSO)” value in the data set on viable cells in culture is recorded as 99.98 % DMSO.
Regarding `CCOC(=O)C1=C(C)NC2=C(C(=O)CC(c3ccccc3)C2)C1c1cccc(F)c1` (stereo not shown) [compound 1244], in data set [1], the “Average Number of hTERT Transcripts” value was determined as 9.34. Besides, the “Average Cell Viability after 24 Hours (% DMSO)” value in the data set on viable cells in culture was 80.52 % DMSO.
On to `CC1=C(C(=O)OC2CCCC2)C(c2cccc(F)c2)C2=C(CC(c3cccs3)CC2=O)N1` (stereo not shown) [compound 1245], for which the “Average Number of hTERT Transcripts” value in data set [1] stood at 8.42. Also, the “Average Cell Viability after 24 Hours (% DMSO)” value in the data set with viable cells in culture is 79.22 % DMSO.
Turning to `CC1=C(C(=O)OC2CCCCCC2)C(c2ccc([N+](=O)[O-])cc2)C2=C(CC(C)(C)CC2=O)N1` (stereo not shown) [compound 1246], the “Average Number of hTERT Transcripts” value in data set [1] came out at 27.65. The “Average Cell Viability after 24 Hours (% DMSO)” value with viable cells in culture was 83.08 % DMSO.
Consider `CC1=C(C(=O)OC2CCCC2)C(c2ccc(Br)cc2)C2=C(CC(C)(C)CC2=O)N1` (stereo not shown) [compound 1247], for which the “Average Number of hTERT Transcripts” value in data set [1] is given as 74.16. In addition, in the data set with viable cells in culture, the “Average Cell Viability after 24 Hours (% DMSO)” value came out at 95.77 % DMSO.
For `COC(=O)CSC1=C(C#N)C(c2ccco2)C(C(=O)Nc2ccc(Cl)cc2)=C(C)N1` (stereo not shown) [compound 1248], in data set [1], the “Average Number of hTERT Transcripts” value stood at 4.69. In addition, the “Average Cell Viability after 24 Hours (% DMSO)” value in the data set on viable cells in culture came out at 57.47 % DMSO.
Taken in the same sequence, the figures for `Brc1n[nH]c2ncnc(N3CCCC3)c12` [compound 1249] were 27.87 and 77.92 % DMSO.
On the same counts, the results for `Cc1cc(C2CCCCC2)n(O)c(=O)c1` [compound 1250] are 184.64 and 67.25 % DMSO.
For the compound `O=S(=O)(c1cccc(F)c1)N1CCC(Oc2ccc(-n3cnnn3)cc2)CC1` [compound 1251], the “Average Number of hTERT Transcripts” value in data set [1] amounted to 23.22. Further, the “Average Cell Viability after 24 Hours (% DMSO)” value with viable cells in culture turned out to be 65.10 % DMSO.
With `Oc1ccc2nc(N3CCOCC3)sc2c1` [compound 1252], in data set [1], the “Average Number of hTERT Transcripts” value is given as 4.21. Also, in the data set on viable cells in culture, the “Average Cell Viability after 24 Hours (% DMSO)” value stood at 96.63 % DMSO.
On the same counts, the results for `CCC(O)c1nc2ccccc2n1CCOc1cccc(OC)c1` (stereo not shown) [compound 1253] are 3.09 and 91.13 % DMSO.
On the same counts, the results for `COc1ccc(OC)c(NC(=O)CSc2ccc(-c3ccccn3)nn2)c1` [compound 1254] are 47.45 and 66.42 % DMSO.
Taken in the same sequence, the figures for `O=C(CSc1ccc(-c2ccccn2)nn1)Nc1ccc2c(c1)OCO2` [compound 1255] were 56.91 and 76.32 % DMSO.
Regarding `O=C(CSc1ccc(-c2ccccn2)nn1)Nc1ccc2c(c1)OCCO2` [compound 1256], in data set [1], the “Average Number of hTERT Transcripts” value is 33.82. In the data set on viable cells in culture, the “Average Cell Viability after 24 Hours (% DMSO)” value is listed as 73.30 % DMSO.
Taken in the same sequence, the figures for `O=C(CSc1ccc(-c2ccccn2)nn1)Nc1ccccc1F` [compound 1257] were 37.50 and 82.05 % DMSO.
Taken in the same sequence, the figures for `Brc1ccc(CSc2ccc(-c3ccccn3)nn2)cc1` [compound 1258] were 12.89 and 53.72 % DMSO.
Taken in the same sequence, the figures for `COc1cc(NC(=O)CSc2ccc(-c3ccccn3)nn2)cc(OC)c1` [compound 1259] were 10.70 and 60.54 % DMSO.
On to `Clc1cccc(CSc2ccc(-c3ccccn3)nn2)c1` [compound 1260], for which the “Average Number of hTERT Transcripts” value in data set [1] is 17.25. Also, in the data set on viable cells in culture, the “Average Cell Viability after 24 Hours (% DMSO)” value amounted to 60.48 % DMSO.
Taken in the same sequence, the figures for `NC(=O)C1CCN(c2nc3c(S(=O)(=O)c4cccc(Cl)c4)nnn3c3ccsc23)CC1` [compound 1261] were 40.28 and 85.18 % DMSO.
On the same counts, the results for `CCOc1cc(Br)cc(/C=N/NC(=O)COc2cccc(C)c2)c1O` [compound 1262] are 8.78 and 57.61 % DMSO.
On the same counts, the results for `Cc1ccc(O)c(/C=N/NC(=O)c2ccc(Br)cc2)c1` [compound 1263] are 53.36 and 64.51 % DMSO.
Turning to `O=C(N/N=C/c1cc(Cl)ccc1O)c1ccc(Br)cc1` [compound 1264], in data set [1], the “Average Number of hTERT Transcripts” value is on record as 33.41. The “Average Cell Viability after 24 Hours (% DMSO)” value in the data set on viable cells in culture stood at 64.22 % DMSO.
Turning to `O=C(N/N=C/c1ccccn1)c1ccccc1` [compound 1265], in data set [1], the “Average Number of hTERT Transcripts” value is 4.42. Moreover, the “Average Cell Viability after 24 Hours (% DMSO)” value in the data set with viable cells in culture was found to be 81.94 % DMSO.
On the same counts, the results for `O=C(N/N=C/c1c(O)ccc2ccccc12)c1ccc(Cl)c(Cl)c1` [compound 1266] are 14.59 and 50.17 % DMSO.

Values taken from patent publication US12404304B1, “Telomerase reverse transcriptase (TERT) expression enhancing compounds and methods for using the same” (Sierra Sciences, LLC, priority 2007, dated 2025).
